According to patent US9139574B2, “Tumor targeted drug combretastatin A4 derivative” (Nanjing Sanhome Pharmaceutical Co., Ltd., priority 2011, dated 2015):

Legend:
NCI-H460 = experiment: MTT assay of anti-tumor activity, NCI-H460; format: cell-based; settings: NCI-H460 cells
Procedure: (§1) The cells were digested and counted. The cell suspension was prepared in a concentration of 5×10^4 cells/ml. 100 μL of the cell suspension per well was added into 96-well plates (5×10^3 cells per well). The 96-well plates were placed in a 5% CO2 incubator at 37° C. for 24 hours. The drugs were diluted with the complete medium to the desired concentrations. 100 μL of the corresponding drug-containing medium was added into each well. Negative control group, vehicle control group and positive control group were set. The 96-well plates were placed in 5% CO2 incubator at 37° C. for 72 hours. The 96-well plates were subjected to a MTT assay, and measured OD value at λ=490 nm. The measurement procedure comprises adding 20 μL MTT (5 mg/ml) for each well, incubating for 4 hours in an incubator, discarding the medium, dissolving by adding 150 μL DMSO into each well, mixing uniformly by rocking gently for 10 minutes on a shaker, reading OD value of each well in a microplate reader at λ=490 nm. The inhibition rate was calculated, the results were recorded, and the anti-tumor activity was assessed.

K562 = experiment: MTT assay of anti-tumor activity, K562; format: cell-based; settings: K562 cells
Procedure: as §1

HCT-116 = experiment: MTT assay of anti-tumor activity, HCT-116; format: cell-based; settings: Homo sapiens, HCT-116, 72 h, HCT-116 cells
Procedure: as §1

MCF-7 = experiment: MTT assay of anti-tumor activity, MCF-7; format: cell-based; settings: Homo sapiens, MCF7, 72 h, MCF-7 cells
Procedure: as §1

DU-145 = experiment: MTT assay of anti-tumor activity, DU-145; format: cell-based; settings: Homo sapiens, DU-145, 72 h, DU-145 cells
Procedure: as §1

Compound	melting point	other results
COc1cc(OC)cc(-c2nc[nH]c2-c2ccc(OC)c(O)c2)c1.O=P([O-])([O-])O.[Na+].[Na+]	169.7 to 172.1 °C	–
COc1ccc(-c2ocnc2-c2cc(OC)c(N)c(OC)c2)cc1F [CN01, 4-(3,5-dimethoxy-4-aminophenyl)-5-(3-fluoro-4-methoxyphenyl)oxazole]	100.8 to 102.6 °C	–
COc1ccc(-c2ocnc2-c2cc(OC)c(Br)c(OC)c2)cc1O [CN02, 4-(3,5-dimethoxy-4-bromophenyl)-5-(3-hydroxy-4-methoxyphenyl)oxazole]	184.7 to 187 °C	–
COc1ccc(-c2ocnc2-c2cc(OC)c(O)c(OC)c2)cc1F [CN03, 4-(3,5-dimethoxy-4-hydroxyphenyl)-5-(3-fluoro-4-methoxyphenyl)oxazole]	161.3 to 162.8 °C	–
COc1ccc(-c2ocnc2-c2cc(OC)c(Br)c(OC)c2)cc1N [CN04, 4-(3,5-dimethoxy-4-bromophenyl)-5-(3-amino-4-methoxyphenyl)oxazole]	179.8 to 183.9 °C	–
COc1ccc(-c2ocnc2-c2cc(OC)c(O)c(OC)c2)cc1N [CN05, 4-(3,5-dimethoxy-4-hydroxyphenyl)-5-(3-amino-4-methoxyphenyl)oxazole]	101.2 to 102 °C	–
COc1ccc(-c2ocnc2-c2cc(OC)c(O)c(OC)c2)cc1O [CN06, 4-(3,5-dimethoxy-4-hydroxyphenyl)-5-(3-hydroxy-4-methoxyphenyl)oxazole]	144.3 to 145.5 °C	–
COc1ccc(-c2ocnc2-c2cc(OC)c([N+](=O)[O-])c(OC)c2)cc1O [CN07, 4-(3,5-dimethoxy-4-nitrophenyl)-5-(3-hydroxy-4-methoxyphenyl)oxazole]	186.2 to 188.4 °C	–
COc1ccc(-c2ocnc2-c2cc(OC)c(N)c(OC)c2)cc1O [CN08, 4-(3,5-dimethoxy-4-aminophenyl)-5-(3-hydroxy-4-methoxyphenyl)oxazole]	126 to 129.6 °C	–
COc1ccc(-c2[nH]cnc2-c2cc(OC)c(N)c(OC)c2)cc1F [CN10, 4-(3,5-dimethoxy-4-aminophenyl)-5-(3-fluoro-4-methoxyphenyl) imidazole]	100.8 to 102.6 °C	–
COc1ccc(-c2[nH]cnc2-c2cc(OC)c(Br)c(OC)c2)cc1O [CN11, 4-(3,5-dimethoxy-4-bromophenyl)-5-(3-hydroxy-4-methoxyphenyl) imidazole]	184.7 to 187 °C	–
COc1ccc(-c2[nH]cnc2-c2cc(OC)c(O)c(OC)c2)cc1F [CN12, 4-(3,5-dimethoxy-4-hydroxyphenyl)-5-(3-fluoro-4-methoxyphenyl) imidazole]	124.7 to 127 °C	–
COc1ccc(-c2[nH]cnc2-c2cc(OC)c(Br)c(OC)c2)cc1N [CN13, 4-(3,5-dimethoxy-4-bromophenyl)-5-(3-amino-4-methoxyphenyl)imidazole]	159.7 to 162 °C	–
COc1ccc(-c2[nH]cnc2-c2cc(OC)c(O)c(OC)c2)cc1N [CN14, 4-(3,5-dimethoxy-4-hydroxyphenyl)-5-(3-amino-4-methoxyphenyl)imidazole]	148.5 to 149.9 °C	–
COc1ccc(-c2[nH]cnc2-c2cc(OC)c(O)c(OC)c2)cc1O [CN15, 4-(3,5-dimethoxy-4-hydroxyphenyl)-5-(3-hydroxy-4-methoxyphenyl)imidazole]	171.5 to 173 °C	–
COc1ccc(-c2[nH]cnc2-c2cc(OC)c([N+](=O)[O-])c(OC)c2)cc1O [CN16, 4-(3,5-dimethoxy-4-nitrophenyl)-5-(3-hydroxy-4-methoxyphenyl)imidazole]	147.7 to 149 °C	–
COc1ccc(-c2[nH]cnc2-c2cc(OC)c(N)c(OC)c2)cc1O [CN17, 4-(3,5-dimethoxy-4-aminophenyl)-5-(3-hydroxy-4-methoxyphenyl) imidazole]	141.8 to 143.7 °C	–
COc1ccc(-c2[nH]cnc2-c2cc(OC)c(N)c(OC)c2)cc1N [CN19, 4-(3,5-dimethoxy-4-aminophenyl)-5-(3-amino-4-methoxyphenyl) imidazole]	139.7 to 142.1 °C	–

Compound	melting point	other results
COc1ccc(-c2ocnc2-c2cc(OC)c(F)c(OC)c2)cc1N [CN20, 4-(3,5-dimethoxy-4-fluorophenyl)-5-(3-amino-4-methoxyphenyl)oxazole]	139.7 to 142.1 °C	–
COc1ccc(-c2ocnc2-c2cc(OC)c(Cl)c(OC)c2)cc1N [CN21, 4-(3,5-dimethoxy-4-chlorophenyl)-5-(3-amino-4-methoxyphenyl)oxazole]	146.2 to 148.1 °C	–
COc1ccc(-c2ocnc2-c2cc(OC)c(OC(F)(F)F)c(OC)c2)cc1N [CN23, 4-(3,5-dimethoxy-4-trifluoromethoxyphenyl)-5-(3-amino-4-methoxyphenyl)oxazole]	167.9 to 170.2 °C	–
COc1cc(OC)cc(-c2ncn(-c3cc(OC)c(OC)c(OC)c3)c2-c2ccc(OC)c(F)c2)c1 [Compound C091, 5-(3-fluoro-4-methoxyphenyl)-4-(3,5-dimethoxyphenyl)-1-(3,4,5-trimethoxyphenyl)imidazole]	157 to 158.4 °C	–
COc1cc(-c2ncn(-c3ccc(C(F)(F)F)cc3)c2-c2ccc(N(C)C)cc2)cc(OC)c1OC [Compound C092, 5-(4-dimethylaminophenyl)-4-(3,4,5-trimethoxyphenyl)-1-(4-trifluoromethylphenyl)imidazole]	215 to 217 °C	–
COc1ccc(-c2ncn(-c3cc(OC)c(OC)c(OC)c3)c2-c2cc(OC)c(OC)c(OC)c2)cc1OC [Compound C104, 5-(3,4,5-trimethoxyphenyl)-4-(3,4-dimethoxyphenyl)-1-(3,4,5-trimethoxyphenyl)imidazole]	159.5 to 161 °C	–
COc1ccc(-c2c(-c3cc(OC)c(OC)c(OC)c3)ncn2-c2cc(OC)c(OC)c(OC)c2)cc1O [Compound C105, 5-(3-hydroxy-4-methoxyphenyl)-4-(3,4,5-trimethoxyphenyl)-1-(3,4,5-trimethoxyphenyl)imidazole]	–	IC50 (NCI-H460; Homo sapiens, NCI-H460, 72 h): 21 nM; IC50 (K562; Homo sapiens, K562, 72 h): 8.9 nM; IC50 (HCT-116): 151 nM; IC50 (MCF-7): 21 nM
COc1cc(-c2ncn(-c3cc(OC)c(OC)c(OC)c3)c2-c2cc(OC)c(OC)c(OC)c2)cc(OC)c1OC [Compound C107, 5-(3,4,5-trimethoxyphenyl)-4-(3,4,5-trimethoxyphenyl)-1-(3,4,5-trimethoxyphenyl)imidazole]	168.8 to 170.9 °C	–
COc1cc(OC)cc(-c2ncoc2-c2ccc(NC(C)=O)cc2)c1 [Compound C109, 5-(4-acetamidophenyl)-4-(3,5-dimethoxyphenyl)oxazole]	140.1 to 143.2 °C	–
COc1cc(OC)cc(-c2ncoc2-c2ccc(N)cc2)c1 [Compound C112, 4-(3,5-dimethoxyphenyl)-5-(4-aminophenyl)oxazole]	142 to 146 °C	–
COc1cc(OC)cc(-c2ncoc2-c2ccc(N(C)C)c(N)c2)c1 [Compound C113, 4-(3,5-dimethoxyphenyl)-5-(3-amino-4-dimethylaminophenyl)oxazole]	111.7 to 113.5 °C	–
COc1cc(OC)cc(-c2ncoc2-c2cc(N)c(OC)cc2N)c1 [Compound C119, 4-(3,5-dimethoxyphenyl)-5-(2,5-diamino-4-methoxyphenyl)oxazole]	149.9 to 151.6 °C	–
COc1cc(OC)cc(-c2nc[nH]c2-c2ccc(N(C)C)cc2)c1 [Compound C130, 4-(3,5-dimethoxyphenyl)-5-(4-dimethylaminophenyl)imidazole]	–	IC50 (NCI-H460; Homo sapiens, NCI-H460, 72 h): 350 nM; IC50 (NCI-H460; 72 hours): > 300 nM; IC50 (K562; Homo sapiens, K562, 72 h): 23 nM; IC50 (K562; 72 hours): 21.3 nM; IC50 (HCT-116): 25 nM
COc1cc(OC)cc(-c2ncn(C)c2-c2ccc(OC(F)(F)F)c(N)c2)c1 [Compound C132, 4-(3,5-dimethoxyphenyl)-5-(3-amino-4-trifluoromethoxyphenyl)-1-methylimidazole]	–	IC50 (DU-145): > 300 nM; IC50 (NCI-H460; Homo sapiens, NCI-H460, 72 h): 90.1 nM; IC50 (K562; Homo sapiens, K562, 72 h): 4.5 nM; IC50 (HCT-116): 52 nM; IC50 (MCF-7): 7.8 nM
COc1cc(OC)cc(-c2ncoc2-c2ccc(OC(F)(F)F)c(O)c2)c1 [Compound C142, 4-(3,5-dimethoxyphenyl)-5-(3-hydroxy-4-trifluoromethoxyphenyl)oxazole]	–	IC50 (DU-145): 4.1 nM; IC50 (NCI-H460; Homo sapiens, NCI-H460, 72 h): 62 nM; IC50 (K562; Homo sapiens, K562, 72 h): 4.2 nM; IC50 (HCT-116): 416 nM; IC50 (MCF-7): 11.3 nM
COc1cc(OC)cc(-c2nc[nH]c2-c2ccc(OC)c(N)c2O)c1 [Compound C146, 4-(3,5-dimethoxyphenyl)-5-(2-hydroxy-3-amino-4-methoxyphenyl)imidazole]	–	IC50 (DU-145): > 300 nM; IC50 (K562; Homo sapiens, K562, 72 h): 6.1 nM; IC50 (HCT-116): 289 nM; IC50 (MCF-7): 9.3 nM
COc1cc(OC)cc(-c2nc[nH]c2-c2ccc(OC(F)(F)F)c(N)c2)c1 [Compound C152, 4-(3,5-dimethoxyphenyl)-5-(3-amino-4-trifluoromethoxyphenyl)imidazole]	–	IC50 (NCI-H460; Homo sapiens, NCI-H460, 72 h): > 300 nM; IC50 (K562; Homo sapiens, K562, 72 h): 6.8 nM; IC50 (HCT-116): 34 nM; IC50 (MCF-7): 10.2 nM
COc1cc(OC)cc(-c2ncoc2-c2ccc3c(c2)NCCO3)c1 [Compound C255, 4-(3,5-dimethoxyphenyl)-5-(6-benzomorpholinyl)oxazole]	175 to 178 °C	–
